Measurements from patent US20140107051A1, “ISOFLAVONES FOR TREATING MUCOPOLYSACCHARIDOSES” (INSTYTUT FARMACEUTYCZNY, priority 2005, published 2014).

How the values were obtained:
[1] = tested on: fibroblasts of patients affected with MPS I; experiment: 35S-sulphate incorporation test of glycosaminoglycans synthesis, MPS I cells; assay type: cell-based, human; conditions: Homo sapiens, Fibroblast, 30 μM; DMSO control = 1; read-out: Relative GAG synthesis (converted to 1 cell), MPS I
Protocol: (§1) The activity of isoflavones was evaluated by the measure of glycosaminoglycans synthesis in 35S-sulphate incorporation test comprising incubation of the radiolabelled 35S-sulfate into GAGs in cultured human skin fibroblasts derived from normal individuals (control) and patients affected with mucopolysaccharidose (Murata et al., Arch Biochem Biophys 2003; 413: 229-235).
(§2) The negative control was DMSO (diluent for genistein and all derivatives), the positive control—genistein. […] Experiment with each cell line has been repeated twice, and every measurement has been done twice.

[2] = tested on: cultured human skin fibroblasts derived from normal individuals; experiment: 35S-sulphate incorporation test of glycosaminoglycans synthesis, normal cells; assay type: cell-based; conditions: 30 μM; for activity at 30 µM: Homo sapiens, Skin fibroblast, DMSO control = 1, read-out: Relative GAG synthesis (converted to 1 cell), Normal cells
Protocol: as §1, §2

[3] = Proliferation 144 h (Table 4); assay type: cell-based; conditions: read-out: Proliferation 144 h IC50
[4] = tested on: cultured human skin fibroblasts derived from patients affected with mucopolysaccharidose; experiment: 35S-sulphate incorporation test of glycosaminoglycans synthesis, different human cell lines / MPS types; assay type: cell-based; conditions: 30 μM; both cell lines of Table 2
Protocol: as §1, §2

MPS IIIB fibroblasts = experiment: Number of lysosomal structures by electron microscopy, MPS IIIB; assay type: cell-based, human; conditions: 30 μM
MPS IIIA fibroblasts = experiment: Number of lysosomal structures by electron microscopy, MPS IIIA; assay type: cell-based, human; conditions: 30 μM

Compound | activity at 30 µM [1] [%] | CC50 at 24 h (in vitro) [µM] | activity at 30 µM [2] [%] | IC50 [3] [µM] | CC50 at 48 h (in vitro) [µM] | influence on GAG synthesis compared with genistein (in words) [4] | Inhibition in relation to genistein, first symbol (normal cells) [2] | Number of structures per 100 μm^2 of cellular cross section ± SD, amorphous (MPS IIIB fibroblasts) [per 100 μm^2] | Number of structures per 100 μm^2 of cellular cross section ± SD, complexed (MPS IIIB fibroblasts) [per 100 μm^2] | Number of structures per 100 μm^2 of cellular cross section ± SD, lamellar (MPS IIIB fibroblasts) [per 100 μm^2] | Number of structures per 100 μm^2 of cellular cross section ± SD, total number (MPS IIIB fibroblasts) [per 100 μm^2] | Number of structures per 100 μm^2 of cellular cross section ± SD, amorphous (MPS IIIA fibroblasts) [per 100 μm^2] | Number of structures per 100 μm^2 of cellular cross section ± SD, complexed (MPS IIIA fibroblasts) [per 100 μm^2] | Number of structures per 100 μm^2 of cellular cross section ± SD, lamellar (MPS IIIA fibroblasts) [per 100 μm^2] | Number of structures per 100 μm^2 of cellular cross section ± SD, total number (MPS IIIA fibroblasts) [per 100 μm^2]
Nc1ccccc1C(=O)Oc1ccc(-c2coc3cc(O)cc(O)c3c2=O)cc1 [IFG-001] | 170 | 13.9 | 84 |  |  |  |  |  |  |  |  |  |  |  | 
CCCCCCCCCCCCCCCC(=O)Oc1cc(O)c2c(=O)c(-c3ccc(O)cc3)coc2c1 [IFG-018] | 51 | 41.7 | 37 | 24.9 | 23.8 | stronger influence on GAG synthesis than genistein | 0/0 |  |  |  |  |  |  |  | 
CC(=O)OCC1OC(Oc2cc(O)c3c(=O)c(-c4ccc(O)cc4)coc3c2)C=CC1OC1OC(COC(C)=O)C(OC(C)=O)C(OC(C)=O)C1OC(C)=O (stereo not drawn) [IFG-021] | 92 | 11 | 57 |  |  |  |  |  |  |  |  |  |  |  | 
C=CCOc1cc(O)c2c(=O)c(-c3ccc(O)cc3)coc2c1 [IFG-027] | 57 | 13.1 | 22 |  |  | an activity comparable with genistein | 0/0 |  |  |  |  |  |  |  | 
O=C(Oc1cc(O)c2c(=O)c(-c3ccc(O)cc3)coc2c1)c1ccccc1O [IFG-034] | 93 | > 30 | 40 | 22.9 | > 30 |  |  | 0.15 ± 0.08 | 0.06 ± 0.05 | 0.20 ± 0.16 | 0.41 ± 0.16 | 0.17 ± 0.09 | 0.27 ± 0.14 | 0.17 ± 0.09 | 0.61 ± 0.20
C=CCOc1ccc(-c2coc3cc(OCC=C)cc(O)c3c2=O)cc1 [IFG-035] | 117 | 22.6 | 26 |  |  | an activity comparable with genistein, but only for one cell line | 0 |  |  |  |  |  |  |  | 
CC(C)(C)OC(=O)COc1ccc(-c2coc3cc(OCC(=O)OC(C)(C)C)cc(O)c3c2=O)cc1 [IFG-042] | 49 | 22 | 14 |  |  | stronger influence on GAG synthesis than genistein | + |  |  |  |  |  |  |  | 
O=c1c(-c2ccc(O)cc2)coc2cc(OCc3ccccc3)cc(O)c12 [IFG-043] | 44 | 14.5 | 17 |  |  | an activity comparable with genistein | + |  |  |  |  |  |  |  | 
CC(C)(C)OC(=O)COc1ccc(-c2coc3cc(O)cc(O)c3c2=O)cc1 [IFG-048] | 92 | 20.3 | 70 |  |  | an activity comparable with genistein, but only for one cell line |  |  |  |  |  |  |  |  | 
O=c1c(-c2ccc(O)cc2)coc2cc(OCC3CO3)cc(O)c12 (stereo not drawn) [IFG-050] | 73 | 11.6 | 10 |  |  | stronger influence on GAG synthesis than genistein | + |  |  |  |  |  |  |  | 
C=CCOc1ccc(-c2coc3cc(OCc4ccccc4)cc(O)c3c2=O)cc1 [IFG-051] | 96 | 14.6 | 32 |  |  | an activity comparable with genistein, but only for one cell line | 0 |  |  |  |  |  |  |  | 
C=CCOc1cc(O)c2c(=O)c(-c3ccc(OC(=O)c4ccccc4OC(C)=O)cc3)coc2c1 [IFG-052] | 85 | 15.8 | 75 | 12.2 | 21.5 | an activity comparable with genistein, but only for one cell line |  |  |  |  |  |  |  |  | 
CC(C)(C#N)c1cc(COc2ccc(-c3coc4cc(OCc5ccccc5)cc(O)c4c3=O)cc2)cc(C(C)(C)C#N)c1 [IFG-053] | 52 | > 30 | 30 | 53 | > 30 | an activity comparable with genistein | 0/0 |  |  |  |  |  |  |  | 
O=C(O)COc1cc(O)c2c(=O)c(-c3ccc(O)cc3)coc2c1 [IFG-054] | 53 | > 30 | 30 | > 30 | > 30 |  | 0/0 |  |  |  |  |  |  |  | 
O=C(O)CCCC(=O)Oc1ccc(-c2coc3cc(OCc4ccccc4)cc(O)c3c2=O)cc1 [IFG-060] | 31 | 14.9 | 43 |  |  |  | − |  |  |  |  |  |  |  | 
COc1ccc(COc2cc(O)c3c(=O)c(-c4ccc(O)cc4)coc3c2)cc1 [IFG-062] | 561 | 12.1 | 316 |  |  |  |  |  |  |  |  |  |  |  | 
C=CCOC(=O)Oc1cc(O)c2c(=O)c(-c3ccc(O)cc3)coc2c1 [IFG-063] | 187 | 51.5 | 75 |  |  |  |  |  |  |  |  |  |  |  | 
CC(C)Oc1ccc(-c2coc3cc(OCc4ccccc4)cc(O)c3c2=O)cc1 [IFG-064] | 60 | 6.6 | 68 |  |  | an activity comparable with genistein, but only for one cell line |  |  |  |  |  |  |  |  | 
CC(C)Oc1ccc(-c2coc3cc(OCc4ccccc4)cc(OC(C)C)c3c2=O)cc1 [IFG-065] | 97 | 22.7 | 152 |  |  |  |  |  |  |  |  |  |  |  | 
CC(C)Oc1ccc(-c2coc3cc(O)cc(O)c3c2=O)cc1 [IFG-066] | 44 | > 30 | 23 | 14.6 | > 30 |  | 0/0 | 0.08 ± 0.06 | 0.11 ± 0.14 | 0.15 ± 0.10 | 0.34 ± 0.23 | 0.18 ± 0.19 | 0.16 ± 0.08 | 0.13 ± 0.10 | 0.48 ± 0.17
CC(=O)Oc1ccc(-c2coc3cc(OCc4ccccc4)cc(O)c3c2=O)cc1 [IFG-067] | 61 | 15.1 | 67 |  |  |  |  |  |  |  |  |  |  |  | 
COC(=O)COc1cc(O)c2c(=O)c(-c3ccc(O)cc3)coc2c1 [IFG-070, [5-hydroxy-3-(4-hydroxyphenyl)-4-oxo-4H-chromen-7-yloxy]-acetic acid methyl ester] |  | > 30 |  | 48.1 | > 30 |  |  |  |  |  |  |  |  |  | 
CC(=O)OCCCCCOc1cc(O)c2c(=O)c(-c3ccc(O)cc3)coc2c1 [IFG-071, acetic acid 5-[5-hydroxy-3-(4-hydroxyphenyl)-4-oxo-4H-chromen-7-yloxy]-pentyl ester] |  | > 30 |  | 17.9 | 57.6 |  |  | 0.13 ± 0.09 | 0.07 ± 0.06 | 0.07 ± 0.07 | 0.26 ± 0.13 | 0.25 ± 0.11 | 0.26 ± 0.09 | 0.28 ± 0.13 | 0.79 ± 0.22
O=c1c(-c2ccc(O)cc2)coc2cc(OCCCO)cc(O)c12 [IFG-072, 5-hydroxy-3-(4-hydroxyphenyl)-7-(3-hydroxypropoxy)-chromen-4-one] |  | > 30 |  | 14.1 | 32.5 |  |  | 0.14 ± 0.10 | 0.16 ± 0.08 | 0.11 ± 0.12 | 0.41 ± 0.20 | 0.34 ± 0.17 | 0.28 ± 0.10 | 0.20 ± 0.10 | 0.82 ± 0.23
O=c1c(-c2ccc(O)cc2)coc2cc(OCCO)cc(O)c12 [IFG-073, 5-hydroxy-7-(2-hydroxyethoxy)-3-(4-hydroxyphenyl)-chromen-4-one] |  | 27.5 |  | 16.1 | 21.7 |  |  |  |  |  |  |  |  |  | 
